Assay results taken from patent US11752105B2, “Spray drying process with continuous preparation of spray solution” (Hovione Scientia Limited, priority 2018, dated 2023).

Assay: Continuous solution preparation: suspension passed through series of five micro-reactors (continuous dissolution)
Assay type: physicochemical
Conditions: solvent H2O; concentration 0.3 % wt
Source text: The resulting suspension was continuously passed through a series of five micro-reactors with microchannels having 500 micron diameter by means of an intensifier pump (MicroDeBEE) at a pressure of 1862 bar. […] The same experiment was repeated with the same setup for other pharmaceutical excipients and solvents. Trihalose is crystalline form and was used as a model for crystalline molecules to mimic API's.

CC(C)C[C@H](N)C(=O)O [L-Leucine]
Continuous dissolution: YES
